This note sets out measurements from US12173320B2, “Production of red blood cells and platelets from stem cells” (BOSTON MEDICAL CENTER CORPORATION, priority 2012, dated 2024).

The subject of this experiment is iPSC-derived MEPs. Nature of the experiment: Live versus dead cell FACS (propidium iodide vs. Hoechst) of MEPs. Format: cell-based, human. Here is the method:
6-formylindolo[3,2-b]carbazole (FICZ), an AHR small molecule agonist, and CH223191, an AHR competitive inhibitor were used for these assays. CH223191 was added to mesoderm cultures at Day 6 at 5 μM (lx) and 2.504 (0.5×). 0.2 μM FICZ was added to cultures at Day 7 and media was added daily. DMSO was used as a vehicle control.
Roughly 10^5 cells were collected, spun, and re-suspended in 0.5% BSA in PBS. Samples were incubated for 30 min at ambient temperature with human antibodies including CD41a-FITC (BD 555466), CD235-PE (BD 555570), CD71-FITC (BD 555536), washed and spun at 3300 rpm for 7 min, and re-suspended in 0.5% BSA in PBS with 1 ug/ml Propidium Iodide. Samples were run on a BD FACScalibur using Cellquest Pro software and analyzed via FloJo 8.7. For ploidy analysis, cells were treated with 1.5% NP-40 (Boston Bioproducts P-872) and 62.5 ug/ml Propidium Iodide in PBS immediately before FACScalibur interrogation. For murine bone marrow, samples were first incubated for 5 min at ambient temperature with murine conjugated antibody CD16/32 (BD 553142) before a 30 min incubation with c-Kit-PE (BD 553355), CD41a-FITC (BD 553848), Ter119-PE (BD 553673). For cell viability assays, 2-3×10 ^5 cells were collected, re-suspended in 8.8 ug/ml Hoecsht 33342 in PBS supplemented with 5% FBS. Samples were then incubated in the dark at 37° C. for 15 min, washed, and re-suspended in 1 ug/ml Propidium Iodide in 5% FBS. Samples were run on an LSR-II machine with FACSDiva software and analyzed via FloJo 8.7.
In order to determine whether FICZ-mediated transactivation of the AhR receptor was responsible for the exponential expansion of iPSC-derived MEPs, the previously described Hoecsht/Propidium Iodide apoptosis assay was performed using the known AhR inhibitor CH223191. As previously shown in FIG. 3, fewer cells stained with propidium iodide after FICZ treatment (e.g., 15.5% vs. 8.09%) (FIG. 5E). […] The efficacy of the CH223191 was confirmed by its ability to block CY1^31B1 induction as assayed by qRT-PCR (FIG. 5F).

For `O=Cc1c2c(cc3c1=Nc1ccccc1-3)=Nc1ccccc1-2` [FICZ, 6-formylindolo[3,2-b]carbazole], for the setting “D13 MEPs, FICZ added at D7, untreated 15.5%”, the “cells stained with propidium iodide” value is on record as 8.09%. For the same molecule, the “population of live cells as delineated by FSC and SSC” value (day 15 MEPs + FICZ) is on record as 32.6%. Also, where the note is “day 15 MEPs + FICZ, gated from FSC vs. SSC population”, the “live cells PI- Hoechst+” value is 97.7%. Further, the “cell death by propidium iodide staining and Hoechst dye exclusion” value (day 30 MEPs, versus untreated control) is reported as “significantly less cell death”.
